# System: YAP/TAZ-TEAD transcription
# Test: Reporter gene assay for measuring the inhibition of YAP/TAZ-TEAD transcription (TEAD-responsive element luciferase reporter in Hek293T cells)
# Format: cell-based
# Conditions: Homo sapiens, HEK-293T, 24 hours incubation
# How it was run: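 Percent inhibition, scaled between vehicle (0%) and a positive control inhibitor (100%), came from SteadyLite luciferase signal after 24 h compound exposure at 37 °C/5% CO2. Cells: Hek293T transiently carrying a TEAD-responsive luciferase reporter; EC50 derived.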
row,SMILES,EC50 [µM]
1,"NCc1ccc(Cn2ccc(-c3cccc(-c4ccccc4)c3)n2)cn1 [compound 029, (5-((3-([1,1′-biphenyl]-3-yl)-1H-pyrazol-1-yl)methyl)pyridin-2-yl)methanamine]",1 to 20
2,"C=CC(=O)Nc1ccc(Cn2ccc(-c3cccc(-c4ccccc4)c3)n2)cn1 [compound 037, N-(5-((3-([1,1′-biphenyl]-3-yl)-1H-pyrazol-1-yl)methyl)pyridin-2-yl)acrylamide]",1 to 20
3,"CNS(=O)(=O)CCNc1ccc(-c2ccccc2)cc1-c1ccn(Cc2cccc(C#N)c2)n1 [compound 104, 2-((3-(1-(3-cyanobenzyl)-1H-pyrazol-3-yl)-[1,1′-biphenyl]-4-yl)amino)-N-methylethane-1-sulfonamide]",< 1
4,"C=CC(=O)NCc1cnc(-c2ccc(F)cc2)cc1-n1ccc(C2CC2)n1 [compound 247, N-((4-(3-cyclopropyl-1H-pyrazol-1-yl)-6-(4-fluorophenyl)pyridin-3-yl)methyl)acrylamide]",< 1
5,"C=CC(=O)NCc1ccc(-c2ccc(C(F)(F)F)cc2)cc1-c1ccn(CCOC)n1 [compound 156, N-((3-(1-(2-methoxyethyl)-1H-pyrazol-3-yl)-4′-(trifluoromethyl)-[1,1′-biphenyl]-4-yl)methyl)acrylamide]",< 1
6,"C=CC(=O)NCc1cnc(-c2ccc(C(F)F)cc2)cc1-c1ccn(C(F)F)n1 [compound 217, N-((4-(1-(difluoromethyl)-1H-pyrazol-3-yl)-6-(4-(difluoromethyl)phenyl)pyridin-3-yl)methyl)acrylamide]",< 1
7,"CNC(=O)CNc1cc(-c2ccccc2)cc(-c2ccn(Cc3cccnc3)n2)c1 [compound 076, N-methyl-2-((5-(1-(pyridin-3-ylmethyl)-1H-pyrazol-3-yl)-[1,1′-biphenyl]-3-yl)amino)acetamide]",1 to 20
8,"CNS(=O)(=O)CCNc1ccc(Cc2ccccc2)cc1-c1ccn(Cc2cccnc2)n1 [compound 115, 2-((4-benzyl-2-(1-(pyridin-3-ylmethyl)-1H-pyrazol-3-yl)phenyl)amino)-N-methylethane-1-sulfonamide]",< 1
9,"C=CC(=O)NCc1ccc(N2CCC(C(F)(F)F)CC2)cc1-c1ccn(C)n1 [compound 181, N-(2-(1-methyl-1H-pyrazol-3-yl)-4-(4-(trifluoromethyl)piperidin-1-yl)benzyl)acrylamide]",< 1
10,"c1ccc(-c2cccc(-c3ccnn3Cc3cccnc3)c2)cc1 [compound 015, 3-((5-([1,1′-biphenyl]-3-yl)-1H-pyrazol-1-yl)methyl)pyridine]",> 20
11,"C=CC(=O)N1CCC(c2cc(-c3ccc(F)cc3)nc(-c3ccn(C(F)F)n3)c2)C1 (stereo not drawn) [Cpd. No. 264, 1-(3-(2-(1-(difluoromethyl)-1H-pyrazol-3-yl)-6-(4-fluorophenyl)pyridin-4-yl)pyrrolidin-1-yl)prop-2-en-1-one]",< 1
12,"C=CC(=O)NC1CC1c1ccc(-c2ccccc2)cc1-c1ccn(C)n1 (stereo not drawn) [Cpd. No. 257, N-(2-(3-(1-methyl-1H-pyrazol-3-yl)-[1,1′-biphenyl]-4-yl)cyclopropyl)acrylamide]",< 1
13,"N#Cc1ccc(Cn2ccc(-c3cccc(-c4ccccc4)c3)n2)cn1 [compound 027, 5-((3-([1,1′-biphenyl]-3-yl)-1H-pyrazol-1-yl)methyl)picolinonitrile]",1 to 20
14,"C=CC(=O)NCc1cnc(-c2ccc(F)cc2)cc1-n1ccc(C(F)(F)F)n1 [compound 246, N-((6-(4-fluorophenyl)-4-(3-(trifluoromethyl)-1H-pyrazol-1-yl)pyridin-3-yl)methyl)acrylamide]",> 20
15,"CCC(=O)NCc1cnc(-c2ccc(F)cc2)cc1-n1nnnc1C [compound 252, N-((6-(4-fluorophenyl)-4-(5-methyl-1H-tetrazol-1-yl)pyridin-3-yl)methyl)propionamide]",> 20
16,"C=CC(=O)NCc1cnc(-c2cccc(C#N)c2)cc1-c1ccn(C(F)F)n1 [compound 220, N-((6-(3-cyanophenyl)-4-(1-(difluoromethyl)-1H-pyrazol-3-yl)pyridin-3-yl)methyl)acrylamide]",< 1
17,"CC(=O)N1CCC(Cn2ccc(-c3cccc(-c4ccccc4)c3)n2)CC1 [compound 031, 1-(4-((3-([1,1′-biphenyl]-3-yl)-1H-pyrazol-1-yl)methyl)piperidin-1-yl)ethan-1-one]",1 to 20
18,"CNS(=O)(=O)CCNc1ccc(-c2cccc(F)c2F)cc1-c1ccn(C)n1 [compound 125, 2-((2′,3′-difluoro-3-(1-methyl-1H-pyrazol-3-yl)-[1,1′-biphenyl]-4-yl)amino)-N-methylethane-1-sulfonamide]",< 1
19,"O=C1CC(Nc2cc(-c3ccccc3)cc(-c3ccn(Cc4cccnc4)n3)c2)CCN1 (stereo not drawn) [compound 073, 4-((5-(1-(pyridin-3-ylmethyl)-1H-pyrazol-3-yl)-[1,1′-biphenyl]-3-yl)amino)piperidin-2-one]",1 to 20
20,"C=CC(=O)NCc1cnc(-c2ccc(Cl)cc2)cc1-c1ccn(C(F)F)n1 [compound 210, N-((6-(4-chlorophenyl)-4-(1-(difluoromethyl)-1H-pyrazol-3-yl)pyridin-3-yl)methyl)acrylamide]",< 1

row,SMILES,EC50 [µM]
1,"C=CC(=O)NCc1cnc(-c2ccc(F)cc2)cc1-c1cnn(C(F)F)n1 [compound 230, N-((4-(2-(difluoromethyl)-2H-1,2,3-triazol-4-yl)-6-(4-fluorophenyl)pyridin-3-yl)methyl)acrylamide]",< 1
2,"C=CC(=O)NCc1ccc(-c2ccc(F)cc2)cc1C1CCN(C)C1 (stereo not drawn) [compound 183, N-((4′-fluoro-3-(1-methylpyrrolidin-3-yl)-[1,1′-biphenyl]-4-yl)methyl)acrylamide]",1 to 20
3,"O=S1(=O)CCC(Nc2cc(-c3ccccc3)cc(-c3ccn(Cc4cccnc4)n3)c2)CC1 [compound 069, 4-((5-(1-(pyridin-3-ylmethyl)-1H-pyrazol-3-yl)-[1,1′-biphenyl]-3-yl)amino)tetrahydro-2H-thiopyran 1,1-dioxide]",1 to 20
4,"NC(=O)c1cncc(-c2cccc(-c3ccn(Cc4ccccc4)n3)c2)c1 [compound 002, 5-(3-(1-benzyl-1H-pyrazol-3-yl)phenyl)nicotinamide]",< 1
5,"CNS(=O)(=O)CCNc1ccc(-c2ccccc2)cc1-c1ccn(Cc2cccc(C(N)=O)c2)n1 [compound 113, 3-((3-(4-((2-(N-methylsulfamoyl)ethyl)amino)-[1,1′-biphenyl]-3-yl)-1H-pyrazol-1-yl)methyl)benzamide]",< 1
6,"CNS(=O)(=O)CCNc1ccc(-c2ccc(C(F)(F)F)c(F)c2)cc1-c1ccn(C)n1 [compound 127, 2-((3′-fluoro-3-(1-methyl-1H-pyrazol-3-yl)-4′-(trifluoromethyl)-[1,1′-biphenyl]-4-yl)amino)-N-methylethane-1-sulfonamide]",< 1
7,"CNC(=O)CCNc1ccc(-c2ccccc2)cc1-c1ccn(C)n1 [compound 064, N-methyl-3-((3-(1-methyl-1H-pyrazol-3-yl)-[1,1′-biphenyl]-4-yl)amino)propanamide]",< 1
8,"CNS(=O)(=O)CCNc1ccc(-c2ccc(C(F)F)cc2)cc1-c1ccn(Cc2cccnc2)n1 [compound 097, 2-((4′-(difluoromethyl)-3-(1-(pyridin-3-ylmethyl)-1H-pyrazol-3-yl)-[1,1′-biphenyl]-4-yl)amino)-N-methylethane-1-sulfonamide]",< 1
9,"O=C(O)CCNc1ccc(-c2ccccc2)cc1-c1ccn(Cc2cccnc2)n1 [compound 059, 3-((3-(1-(pyridin-3-ylmethyl)-1H-pyrazol-3-yl)-[1,1′-biphenyl]-4-yl)amino)propanoic acid]",< 1
10,"c1ccc(-c2cc(NC3CCCOC3)cc(-c3ccn(Cc4cccnc4)n3)c2)cc1 (stereo not drawn) [compound 071, N-(5-(1-(pyridin-3-ylmethyl)-1H-pyrazol-3-yl)-[1,1′-biphenyl]-3-yl)tetrahydro-2H-pyran-3-amine]",1 to 20
11,"O=C(O)c1cncc(-c2cccc(-c3ccn(Cc4ccccc4)n3)c2)c1 [compound 001, 5-(3-(1-benzyl-1H-pyrazol-3-yl)phenyl)nicotinic acid]",> 20
12,"C=CC(=O)NCc1ccc(-c2ccc(F)cc2)cc1-c1ccn(C(C)C)n1 [compound 150, N-((4′-fluoro-3-(1-isopropyl-1H-pyrazol-3-yl)-[1,1′-biphenyl]-4-yl)methyl)acrylamide]",< 1
13,"O=S1(=O)CCN(c2ccc(-c3ccccc3)cc2-c2ccn(Cc3cccnc3)n2)CC1 [compound 051, 4-(3-(1-(pyridin-3-ylmethyl)-1H-pyrazol-3-yl)-[1,1′-biphenyl]-4-yl)thiomorpholine 1,1-dioxide]",> 20
14,"c1ccc(-c2cccc(-c3ccn(CCN4CCOCC4)n3)c2)cc1 [compound 025, 4-(2-(3-([1,1′-biphenyl]-3-yl)-1H-pyrazol-1-yl)ethyl)morpholine]",1 to 20
15,"Nc1ccc(Cn2ccc(-c3cccc(-c4ccccc4)c3)n2)cn1 [compound 034, 5-((3-([1,1′-biphenyl]-3-yl)-1H-pyrazol-1-yl)methyl)pyridin-2-amine]",> 20
16,"C=CC(=O)NCc1ccc(-c2ccc(F)cc2)cc1-c1ccn(CCOC(F)(F)F)n1 [compound 155, N-((4′-fluoro-3-(1-(2-(trifluoromethoxy)ethyl)-1H-pyrazol-3-yl)-[1,1′-biphenyl]-4-yl)methyl)acrylamide]",1 to 20
17,"CNS(=O)(=O)CCNc1ccc(-c2cc(F)cc(F)c2)cc1-c1ccn(Cc2cccnc2)n1 [compound 101, 2-((3′,5′-difluoro-3-(1-(pyridin-3-ylmethyl)-1H-pyrazol-3-yl)-[1,1′-biphenyl]-4-yl)amino)-N-methylethane-1-sulfonamide]",< 1
18,"CNS(=O)(=O)CCNc1ccc(-c2cnn(C)c2)cc1-c1ccn(Cc2cccnc2)n1 [compound 108, N-methyl-2-((4-(1-methyl-1H-pyrazol-4-yl)-2-(1-(pyridin-3-ylmethyl)-1H-pyrazol-3-yl)phenyl)amino)ethane-1-sulfonamide]",1 to 20
19,"NC(=O)c1ccc(Cn2ccc(-c3cccc(-c4ccccc4)c3)n2)cn1 [compound 028, 5-((3-([1,1′-biphenyl]-3-yl)-1H-pyrazol-1-yl)methyl)picolinamide]",1 to 20
